# Assay results from US9352013B2, “Uses of bremelanotide in therapy for female sexual dysfunction” (Palatin Technologies, Inc., priority 2012, dated 2016).
# Marks after values point to notes of the source that are not given here.
# What was measured:
# [1] = Example 1: ambulatory blood pressure monitoring; assay type: in vivo, human; settings: for Pulse: treatment group difference (from placebo) in mean change from single-blind placebo: in bpm (unit assumed); for DBP: treatment group difference (from placebo) in mean change from single-blind placebo / SBP: treatment group difference (from placebo) in mean change from single-blind placebo: in mmHg (unit assumed); for HR-BP Product: treatment group difference (from placebo) in mean change from single-blind placebo: in mmHg·bpm (unit assumed)
# Protocol: Ambulatory blood pressure monitoring was conducted following both placebo and randomized treatment group in-clinic administrations. Three periods of ambulatory blood pressure monitoring were included, the first period was from before to 24 hours after a single, in-clinic dose of placebo (to establish a baseline); the second and third periods occurred from before to 24 hours after each of 2 single, in-clinic doses of double-blind treatment, administered within 14 days of each other. Blood samples for pharmacokinetic analysis were collected before and at 0.5, 1.0, and 2.0 hours after each in-clinic bremelanotide single-dose treatment (double-blind only), to permit analysis of concentration-response relationships.
# Mean changes in blood pressure were characterized in all subjects based on sequential supervised dosing of single-blind subcutaneous placebo and two doses of randomized study drug. The primary analysis for mean changes was the difference between treatment groups in the change from single-blind placebo to randomized drug (Visit 2 vs. Visits 5/7). There were between 86 to 100 subjects in each dose group.
# Although there were an increased number of outliers for maximal changes from baseline in systolic blood pressure in drug-treated patients, the duration of these events was quite limited. The interrogation interval during ambulatory blood pressure monitoring assessments of 15 minutes allowed definition of the maximal duration of such excursions. […] The clinical significance of such changes, if any, is small.
# [2] = test system: premenopausal and postmenopausal women with FSAD; test: Phase 2 intranasal trials in women with FSAD: efficacy and adverse events; assay type: in vivo, human
# Protocol: In the bremelanotide premenopausal arm, 42.5% of the subjects were discontinued due to hypertension, nausea, vomiting or myalgia. Subjects received a 10 mg intranasal dose of bremelanotide, with premenopausal subjects determined to have a mean plasma concentration of 88.5±51.9 ng/mL and a % CV of 58.6, and postmenopausal subjects determined to have a mean plasma concentration of 93.2±68.5 ng/mL and a % CV of 73.5. The minimum and maximum plasma concentration levels for all women at thirty minutes post dose range from 0.0 ng/mL to 207.0 ng/mL.
# Results with premenopausal women in a placebo-controlled, randomized, double-blind, parallel group, at-home exploratory study to evaluate the efficacy and safety of intranasally administered bremelanotide in subjects with female sexual arousal disorder (FSAD) were compared against results in the study of Example 1. In the intranasal study, a total of 76 premenopausal subjects were randomized, with 40 subjects to receive bremelanotide and 36 to receive placebo. Twenty-two subjects treated with bremelanotide and 29 treated with placebo completed the study, with 16 subjects who received bremelanotide (40%) discontinuing from the study due to an adverse event. This compares to the study of Example 1, in which as shown by Table 6 only 8% of subjects on the 1.75 mg subcutaneous dose discontinuing due to an adverse event.
# [3] = 1.25 mg SC, interval 8-24 h, V5
# [4] = 1.25 mg SC, interval 8-24 h, V7
# [5] = 1.75 mg SC, interval 0-24 h, V5
# [6] = 1.75 mg SC, interval 0-24 h, V7
# [7] = 1.75 mg SC, interval 8-24 h, V5
# [8] = 1.75 mg SC, interval 8-24 h, V7
structure (smiles),measurement,setting,value
"CCCC[C@H](NC(C)=O)C(=O)N[C@H]1CC(=O)NCCCC[C@@H](C(=O)O)NC(=O)[C@H](Cc2c[nH]c3ccccc23)NC(=O)[C@H](CCCNC(=N)N)NC(=O)[C@@H](Cc2ccccc2)NC(=O)[C@H](Cc2c[nH]cn2)NC1=O [bremelanotide, Ac-Nle-cyclo(-Asp-His-D-Phe-Arg-Trp-Lys)-OH]",Pulse: treatment group difference (from placebo) in mean change from single-blind placebo,"[1]; 1.25 mg SC, interval 4-8 h, V5",−6.1*
same,DBP: treatment group difference (from placebo) in mean change from single-blind placebo,"[1]; 1.25 mg SC, interval 4-8 h, V5",2.2*
same,SBP: treatment group difference (from placebo) in mean change from single-blind placebo,"[1]; 1.25 mg SC, interval 4-8 h, V5",1.4
same,HR-BP Product: treatment group difference (from placebo) in mean change from single-blind placebo,"[1]; 1.25 mg SC, interval 4-8 h, V5",−621.0*
same,Pulse: treatment group difference (from placebo) in mean change from single-blind placebo,"[1]; 1.25 mg SC, interval 4-8 h, V7",−6.5*
same,DBP: treatment group difference (from placebo) in mean change from single-blind placebo,"[1]; 1.25 mg SC, interval 4-8 h, V7",0.9
same,SBP: treatment group difference (from placebo) in mean change from single-blind placebo,"[1]; 1.25 mg SC, interval 4-8 h, V7",1.3*
same,HR-BP Product: treatment group difference (from placebo) in mean change from single-blind placebo,"[1]; 1.25 mg SC, interval 4-8 h, V7",−669.7*
same,Pulse: treatment group difference (from placebo) in mean change from single-blind placebo,[1]; [3],−1.5
same,DBP: treatment group difference (from placebo) in mean change from single-blind placebo,[1]; [3],1.4*
same,SBP: treatment group difference (from placebo) in mean change from single-blind placebo,[1]; [3],0.7
same,HR-BP Product: treatment group difference (from placebo) in mean change from single-blind placebo,[1]; [3],−127.4
same,Pulse: treatment group difference (from placebo) in mean change from single-blind placebo,[1]; [4],−0.7
same,DBP: treatment group difference (from placebo) in mean change from single-blind placebo,[1]; [4],1.7*
same,SBP: treatment group difference (from placebo) in mean change from single-blind placebo,[1]; [4],1.5*
same,HR-BP Product: treatment group difference (from placebo) in mean change from single-blind placebo,[1]; [4],4.2
same,"Systolic blood pressure shifts: ΔSBP >10 mmHg, Duration >30 minutes",[1]; 1.75 mg SC,0
same,"Systolic blood pressure shifts: ΔSBP >15 mmHg, Duration >30 minutes",[1]; 1.75 mg SC,0
same,Pulse: treatment group difference (from placebo) in mean change from single-blind placebo,"[1]; 1.75 mg SC, interval 0-4 h, V5",−4.6*
same,DBP: treatment group difference (from placebo) in mean change from single-blind placebo,"[1]; 1.75 mg SC, interval 0-4 h, V5",3.2*
same,SBP: treatment group difference (from placebo) in mean change from single-blind placebo,"[1]; 1.75 mg SC, interval 0-4 h, V5",3.1*
same,HR-BP Product: treatment group difference (from placebo) in mean change from single-blind placebo,"[1]; 1.75 mg SC, interval 0-4 h, V5",−305.9
same,Pulse: treatment group difference (from placebo) in mean change from single-blind placebo,"[1]; 1.75 mg SC, interval 0-4 h, V7",−4.7*
same,DBP: treatment group difference (from placebo) in mean change from single-blind placebo,"[1]; 1.75 mg SC, interval 0-4 h, V7",2.6*
same,SBP: treatment group difference (from placebo) in mean change from single-blind placebo,"[1]; 1.75 mg SC, interval 0-4 h, V7",2.5*
same,HR-BP Product: treatment group difference (from placebo) in mean change from single-blind placebo,"[1]; 1.75 mg SC, interval 0-4 h, V7",−375.4*
same,Pulse: treatment group difference (from placebo) in mean change from single-blind placebo,[1]; [5],−2.2*
same,DBP: treatment group difference (from placebo) in mean change from single-blind placebo,[1]; [5],1.9*
same,SBP: treatment group difference (from placebo) in mean change from single-blind placebo,[1]; [5],1.6
same,HR-BP Product: treatment group difference (from placebo) in mean change from single-blind placebo,[1]; [5],−139.1
same,Pulse: treatment group difference (from placebo) in mean change from single-blind placebo,[1]; [6],−2.2*
same,DBP: treatment group difference (from placebo) in mean change from single-blind placebo,[1]; [6],1.8*
same,SBP: treatment group difference (from placebo) in mean change from single-blind placebo,[1]; [6],1.3
same,HR-BP Product: treatment group difference (from placebo) in mean change from single-blind placebo,[1]; [6],−184.1
same,Pulse: treatment group difference (from placebo) in mean change from single-blind placebo,"[1]; 1.75 mg SC, interval 4-8 h, V5",−6.6*
same,DBP: treatment group difference (from placebo) in mean change from single-blind placebo,"[1]; 1.75 mg SC, interval 4-8 h, V5",2.3*
same,SBP: treatment group difference (from placebo) in mean change from single-blind placebo,"[1]; 1.75 mg SC, interval 4-8 h, V5",2.1
same,HR-BP Product: treatment group difference (from placebo) in mean change from single-blind placebo,"[1]; 1.75 mg SC, interval 4-8 h, V5",−608.1*
same,Pulse: treatment group difference (from placebo) in mean change from single-blind placebo,"[1]; 1.75 mg SC, interval 4-8 h, V7",−6.6*
same,DBP: treatment group difference (from placebo) in mean change from single-blind placebo,"[1]; 1.75 mg SC, interval 4-8 h, V7",2.2*
same,SBP: treatment group difference (from placebo) in mean change from single-blind placebo,"[1]; 1.75 mg SC, interval 4-8 h, V7",2.2
same,HR-BP Product: treatment group difference (from placebo) in mean change from single-blind placebo,"[1]; 1.75 mg SC, interval 4-8 h, V7",−624.5*
same,Pulse: treatment group difference (from placebo) in mean change from single-blind placebo,[1]; [7],−0.8
same,DBP: treatment group difference (from placebo) in mean change from single-blind placebo,[1]; [7],1.4*
same,SBP: treatment group difference (from placebo) in mean change from single-blind placebo,[1]; [7],0.9
same,HR-BP Product: treatment group difference (from placebo) in mean change from single-blind placebo,[1]; [7],−23.7
same,Pulse: treatment group difference (from placebo) in mean change from single-blind placebo,[1]; [8],−0.5
same,DBP: treatment group difference (from placebo) in mean change from single-blind placebo,[1]; [8],1.4
same,SBP: treatment group difference (from placebo) in mean change from single-blind placebo,[1]; [8],0.6
same,HR-BP Product: treatment group difference (from placebo) in mean change from single-blind placebo,[1]; [8],−31.3
same,Subjects reporting at least one adverse event,"[2]; 10 mg intranasal, postmenopausal, placebo 47.7%",100%
same,Subjects discontinuing from the study due to an adverse event,"[2]; 10 mg intranasal, premenopausal, 16 of 40 subjects",40%
same,Sexual desire and arousal compared to placebo,"[2]; intranasal, premenopausal and postmenopausal women with FSAD",increase sexual desire and arousal compared to placebo
